Experimental data: patent publication US11090319B2, “Therapeutic uses of pharmaceutical compositions comprising cyclic boronic acid ester derivatives” (Melinta Subsidiary Corp., priority 2010, dated 2021)

How the values were obtained:
[1] = tested on: AB1052 Acinetobacter baumannii OXA-24; experiment: Ceftazidime MIC with fixed concentration of BLI; type: cell-based; details: AB1052 OXA-24
Experimental: (§1) Next, ceftazidime potentiation activity of several cyclic boronic acid ester derivatives was tested using a larger panel of strains expressing β-lactamase hydrolyzing enzymes. Ceftazidime MICs were determined alone and in the presence of fixed concentrations of various cyclic boronic acid ester derivatives.

[2] = tested on: KP1014 Klebsiella pneumoniae Vim-1; experiment: Ceftazidime MIC with fixed concentration of BLI; type: cell-based; details: KP1014 Vim-1
Experimental: as §1

OXA-10, lysate of KP1007 = OXA-10, lysate of KP1007 (Pseudomonas aeruginosa, UniProt P14489); experiment: Inhibition of ceftazidime hydrolysis by bacterial lysate
Sequence of OXA-10, lysate of KP1007 (P14489 20-266): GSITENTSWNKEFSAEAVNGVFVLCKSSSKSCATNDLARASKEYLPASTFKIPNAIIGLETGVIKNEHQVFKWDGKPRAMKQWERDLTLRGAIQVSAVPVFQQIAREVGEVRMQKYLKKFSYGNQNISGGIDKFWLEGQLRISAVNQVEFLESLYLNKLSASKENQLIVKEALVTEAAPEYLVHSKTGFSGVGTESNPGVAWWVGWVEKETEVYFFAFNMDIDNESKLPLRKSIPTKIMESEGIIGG

[3] = target: CTX-M-15, lysate of KP1009 (Escherichia coli, UniProt Q9EXV5); experiment: as above
Sequence of CTX-M-15, lysate of KP1009 (Q9EXV5 entry or part of it): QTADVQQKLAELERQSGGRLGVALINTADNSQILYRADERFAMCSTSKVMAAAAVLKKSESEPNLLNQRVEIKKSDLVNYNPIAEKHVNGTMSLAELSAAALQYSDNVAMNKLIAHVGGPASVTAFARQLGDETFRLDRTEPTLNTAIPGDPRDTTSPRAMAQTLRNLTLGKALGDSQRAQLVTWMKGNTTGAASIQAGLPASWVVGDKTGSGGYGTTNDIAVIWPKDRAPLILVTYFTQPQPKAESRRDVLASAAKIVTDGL

[4] = tested on: SM1000 Serratia marcescens SME-2; experiment: Checkerboard assay, biapenem potentiation; details: Biapenem MIC 8-fold; SM1000 SME-2 class A
[5] = tested on: EC1007 Escherichia coli KPC-3; experiment: Checkerboard assay, biapenem potentiation; details: Biapenem MIC 8-fold; EC1007 KPC-3 class A

Compound	MIC ([1]; Acinetobacter baumannii, read-out: Ceftazidime MIC Alone)	MIC ([2]; Klebsiella pneumoniae, read-out: Ceftazidime MIC Alone)	Ceftazidime MIC with cyclic boronic acid ester derivative ([1]; derivative at 10 μg/mL)	Ceftazidime MIC with cyclic boronic acid ester derivative ([2]; derivative at 10 μg/mL)	IC50 (OXA-10, lysate of KP1007)	IC50 [3]	MPC8 [4]	MPC8 [5]
CC(C)(O/N=C(\C(=O)N[C@@H]1C(=O)N2C(C(=O)[O-])=C(C[n+]3ccccc3)CS[C@H]12)c1csc(N)n1)C(=O)O [Ceftazidime, reference compound]	> 8 µg/mL	> 8 µg/mL						
O=C(O)C[C@@H]1CC[C@H](NC(=O)Cc2ccccc2)B(O)O1 [Compound 6, 2-((3R,6S)-2-hydroxy-3-(2-phenylacetamido)-1,2-oxaborinan-6-yl)acetic acid]			Z (MIC of greater than 8 μg/mL)	Z (MIC of greater than 8 μg/mL)	> 3.44 µM	0.344 to 3.44 µM	Y (MPC8 of 0.16 μg/mL to 1 μg/mL)	X (MPC8 of less than 0.16 μg/mL)
